The text below walks through data of patent publication US10795976B2, “Program randomization for cyber-attack resilient control in programmable logic controllers” (Siemens Aktiengesellschaft, priority 2016, dated 2020).

Counter-ions that a name gives are not always drawn. Like-named read-outs stand apart in the source and are kept apart here.

Series [1] concerns CB2 receptor knockout mice. The format is in vivo.
Series [2] has as its system C57BL/6JOlaHsd mice. Put plainly: Ear scratch response (ESR) / grooming, urge-like behavior. The format is in vivo. On the procedure: 1. CB2 receptor selective ligands or CB2/SERM ligands were injected intraperitoneally or orally at doses of 0.001 to 100 mg/kg one to two hours before the injection of DOI. In order to test the effect of DOI on head twitch responses, ear scratch and grooming responses, DOI was intraperitoneally injected at a dose of 1 mg/kg.
ESR behavior is a measure for urge-like behavior and often preceded HTRs. The ESR is a rapid scratching movement of the head, neck, ears, or other body surfaces by either hindlimbs. The number of ESRs was manually counted. Every ESR was also counted as a grooming. In some experiments, each ESR was considered as a separate episode if the animal moved. In some experiments, each ESR was considered as a separate episode for every ESR.
Grooming behavior is a measure for anxiety. Grooming behavior in mice is characterized by licking its fur, groom with the forepaws, or scratch with any limb. Often the mouse will mix all of these grooming behaviors. The number of grooms was manually counted. In some experiments, each grooming behavior was considered as a separate episode if the animal moved its hindlimbs. In some experiments, each grooming behavior was considered as a separate episode for every grooming behavior.

Series [3] deals with C57BL/6JOlaHsd mice. The series is classed as in vivo.
Series [4] concerns mice. To be noted: 5 mg/kg during postnatal days 5-13; measured at the age of 12 weeks; cited from earlier work.
Series [5] has as its system C57BL/6JOlaHsd mice. Put plainly: Marble burying test (MBT), compulsive behavior. To be noted: one hour after a single injection, age 6 weeks. The series is classed as in vivo. On the procedure:
Mice were habituated to the test room for 1 h. A mouse was injected with DOI as above and then placed in the experimental cage (white plastic 36×24.5×14.5 cm) filled with 5 cm sawdust for 5 min, in the absence of marbles. The mouse was taken out and twenty black glass were arranged 4 by 5 with 7 cm apart and 1 cm apart from the wells of the cage. Each mouse was tested for its marble burying activity for 30 min. Activity was videotaped with EthoVision and buried marbles were counted manually at the end of the experiment (after 30 min). A marble considered as buried when it was sawdust-covered by two third of its volume.
Marbles that were moved were also counted.
With a view to study the effect of the JTE-907 and M1 compositions on repetitive behavior, C57BL/6JOlaHsd mice were intraperitoneally injected at age 6 weeks with a single dose of JTE-907 at 0.2-50 mg/kg, M1 at 0.2-50 mg/kg or equivalent vehicle. The number of buried marbles in the burying marble test by each mouse was recorded.

Series [6] deals with GPR55 (Homo sapiens, UniProt Q9Y2T6). The conditions noted are these: Schuehly et al. 2011; cited from earlier work.
Chain of GPR55 (Q9Y2T6 whole entry, species assumed): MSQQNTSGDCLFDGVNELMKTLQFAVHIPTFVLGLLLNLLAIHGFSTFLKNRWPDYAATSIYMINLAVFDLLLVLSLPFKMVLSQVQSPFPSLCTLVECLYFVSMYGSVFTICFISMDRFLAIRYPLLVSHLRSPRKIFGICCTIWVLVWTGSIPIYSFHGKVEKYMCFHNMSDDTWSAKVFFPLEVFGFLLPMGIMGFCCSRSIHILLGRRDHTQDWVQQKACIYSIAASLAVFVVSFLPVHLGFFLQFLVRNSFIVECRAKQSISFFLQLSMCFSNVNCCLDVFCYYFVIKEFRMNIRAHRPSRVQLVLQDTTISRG
The target in series [7] is T1, cyclooxygenase 2 (COX-2) (Homo sapiens, UniProt P35354).
T1 sequence (P35354 18-604): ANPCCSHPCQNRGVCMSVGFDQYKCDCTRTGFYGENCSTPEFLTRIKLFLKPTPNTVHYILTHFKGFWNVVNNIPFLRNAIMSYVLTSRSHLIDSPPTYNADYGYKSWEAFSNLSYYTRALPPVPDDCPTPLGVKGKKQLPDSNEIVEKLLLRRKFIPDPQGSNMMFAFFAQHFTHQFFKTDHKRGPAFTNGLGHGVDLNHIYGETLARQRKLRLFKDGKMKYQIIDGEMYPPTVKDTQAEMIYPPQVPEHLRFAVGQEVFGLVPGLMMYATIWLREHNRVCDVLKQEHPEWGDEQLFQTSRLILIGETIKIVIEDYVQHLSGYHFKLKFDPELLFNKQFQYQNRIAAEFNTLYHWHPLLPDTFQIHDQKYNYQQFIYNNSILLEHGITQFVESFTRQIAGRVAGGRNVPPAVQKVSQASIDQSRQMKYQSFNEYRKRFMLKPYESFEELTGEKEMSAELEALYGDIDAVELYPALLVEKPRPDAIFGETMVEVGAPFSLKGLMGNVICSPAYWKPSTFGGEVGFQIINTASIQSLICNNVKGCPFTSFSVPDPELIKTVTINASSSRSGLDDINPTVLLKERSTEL
To be noted: Schuehly et al. 2011; cited from earlier work.

Series [8] has as its system osteoclastogenesis. To be noted: Schuehly et al. 2011; cited from earlier work.
The test system of series [9] is Sabra mice. Put plainly: Ultrasonic vocals after postnatal SR141716A (vocal tic-like behavior). The series is classed as in vivo.
The test system of series [10] is Tourette syndrome (TS) patients. The conditions noted are these: patient reports; cited from earlier work.
Setting [11] is: model inducer, 1 mg/kg i.p., age three weeks up to 21 weeks.
[12] abbreviates: 0.2 mg/kg i.p. single dose, one hour before DOI 1 mg/kg i.p., age 3 weeks.
The mark [13] stands for this setting: 5 mg/kg i.p. single dose, one hour before DOI 1 mg/kg i.p., age 3 weeks.
[14] abbreviates: 1-20 mg/kg i.p., no DOI, age 6 weeks.
Where [15] appears, read: 10 mg/kg i.p. single dose, one hour before DOI 1 mg/kg i.p., age 3 weeks.

Take `COc1cc(CC(C)N)c(OC)cc1I.Cl` (single isomer, unassigned; (-)) [DOI, (−)-1-(2,5-dimethoxy-4-iodophenyl)-2-aminopropane hydrochloride]: the “HTR frequency in CB2 receptor knockout mice” value in series [1] (model inducer, 1 mg/kg i.p., 6 weeks old) is reported as “increased”. Also, in series [2] (setting [11]), the “ear scratch response and grooming behavior” value is “increased”. Besides, in [3] (setting [11]), the head twitch response result is “increased”.

`C=C1CC/C=C(\C)CC[C@@H]2[C@@H]1CC2(C)C` [BCP, beta-caryophyllene]: the “DOI-induced repetitive head twitches” value in series [3] (dose not stated) is “able to reduce”.

Turning to `CCCCCCC(C)(C)c1cc(OC)c([C@@H]2C=C(CO)[C@@H]3C[C@H]2C3(C)C)c(OC)c1` [HU-308, [(1R,2R,5R)-2-[2,6-dimethoxy-4-(2-methyloctan-2-yl)phenyl]-7,7-dimethyl-4-bicyclo[3.1.1]hept-3-enyl] methanol], in series [1] (5 mg/kg i.p., one hour before DOI 1 mg/kg i.p., male, age 6-21 weeks), the “DOI-induced HTR frequency in CB2 receptor knockout mice” value is listed as “significantly reduces”. In series [4], the “motor tics/head twitches in the open field test” value is given as “induce abnormal motor tics/head twitches”. Further, the “DOI-induced HTR frequency” value in [3] (setting [12]) and in series [3] (setting [13]) was “reduced” throughout. Moreover, the “repetitive behavior (HTR) with the drug alone” value in series [3] (0.2 mg/kg i.p., saline instead of DOI, age 3 weeks) is “significantly increased”.

`CCCCCOc1c(OC)ccc2cc(C(=O)NCc3ccc4c(c3)OCO4)c(=O)[nH]c12` [JTE-907, N-(benzo[1,3]dioxol-5-ylmethyl)-7-methoxy-2-oxo-8-pentyloxy-1,2-dihydroquinoline-3-carboxamide]: the “number of buried marbles” value in series [5] (5 mg/kg i.p.) is recorded as “reduced”. Further, the “DOI-induced HTR frequency” value in [3] (setting [12]) and in [3] (setting [13]) was “reduced” in each case.

For the molecule `C=CCc1ccc(O)c(-c2ccc(OC)c(CC=C)c2)c1` [MH, 2-(4-Methoxy-3-prop-2-enylphenyl)-4-prop-2-enylphenol], the GPR55 activity entry in series [6] was “not”. In addition, the COX-2 enzymatic activity result in series [7] is recorded as “inhibits”. In [8], the osteoclastogenesis result is on record as “potently inhibits”. Besides, the “urge-like response induced by the drug alone” value in [2] (setting [14]) is listed as “did not induce urge-like response at any dose”. In addition, the “frequency of DOI-induced ESR behavior (urge-like behavior)” value in series [2] (i.p., one hour before DOI 1 mg/kg i.p., dose not given) is on record as “reduced”. Besides, the “number of buried marbles” value in series [5] (10 mg/kg i.p.) is listed as “reduced”. Moreover, the “DOI-induced HTRs” value was “reduced” in series [3] (1 mg/kg i.p. single dose, one hour before DOI 1 mg/kg i.p., age 3 weeks); “reduced” in series [3] (1 mg/kg i.p. single dose, one hour before DOI 1 mg/kg i.p., age 6 weeks); “reduced” in series [3] (5 mg/kg i.p. single dose, one hour before DOI 1 mg/kg i.p., age 6 weeks). For the same molecule, the “DOI-induced HTR frequency” value in series [3] (1 mg/kg oral (gavage) in self-emulsifying oral formulation, two hours before DOI 1 mg/kg i.p., age 3 weeks) is recorded as “significantly reduced”; in series [3] (setting [13]) it was “reduced”; in [3] (5 mg/kg oral (gavage) in self-emulsifying oral formulation, two hours before DOI 1 mg/kg i.p., age 3 weeks), “significantly reduced”. For the same molecule, in series [3] (setting [14]), the “HTR induced by the drug alone” value was “did not induce HTR at any dose”. The “effect to reverse DOI-induced HTR, comparison of ages” value in [3] (i.p., 20 min from DOI injection, age 3 weeks vs 6 weeks) is on record as “higher at age 3 weeks than 6 weeks”. Further, the “effect on DOI-induced HTR frequency, 1 mg/kg compared with 5 mg/kg” value in series [3] (oral formulation, age 3 weeks) is recorded as “greater”. The “vocal tic-like behavior (number of ultrasonic vocal events)” value in series [9] (SR141716A 5 mg/kg s.c. postnatal day 1-3, drug 5 mg/kg s.c. at age 13 days, one hour before recording) is listed as “significantly reduces”.

For `Cc1c(C(=O)NN2CCCCC2)nn(-c2ccc(Cl)cc2Cl)c1-c1ccc(Cl)cc1` [SR141716A], the “vocalization of mice pups vs control litter mates” value in [9] (administered at the age of one to two days) is “higher level of vocalization and/or higher number of vocals”.

Regarding `CCN(CC)CCOc1ccc(C(=C(Cl)c2ccccc2)c2ccccc2)cc1` [clomiphene citrate], the “DOI-induced HTR frequency” value in series [3] (setting [15]) is recorded as “did not significantly reverse”.

For the molecule `O=C(c1ccc(OCCN2CCCCC2)cc1)c1c(-c2ccc(O)cc2)sc2cc(O)ccc12` [raloxifene], the “DOI-induced HTR frequency” value in [3] (setting [15]) is “reduced”.

As to `CCCCCc1cc(O)c2c(c1)OC(C)(C)[C@@H]1CCC(C)=C[C@@H]21` [Δ^9-tetrahydrocannabinol], the tic frequency result in series [10] is given as “ameliorate”.
